# Reference: patent publication US12029682B2, “Spray ejector mechanisms and devices providing charge isolation and controllable droplet charge, and low dosage volume ophthalmic administration” (EYENOVIA, INC., priority 2012, dated 2024)
# Test: Pharmacokinetic study: acid of latanoprost in aqueous humor (AH) by HPLC
# Type: in vivo, beagle dog
# Details: delivered by the spray ejector device
# Experimental: Eight normal laboratory beagles were chosen for this study. Conditions for inclusion included normal overall health and normal ophthalmic state as determined by gross eye exam by a boarded veterinary ophthalmologist. Pre- and post-dosing mass deposition calibrations of the spray device were consistently within 10% of the intended dose of 9 μl. A 9.0 μl dose of a commercially available prostaglandin pro-drug, latanoprost, was instilled topically in two eyes of each of eight normotensive beagle dogs using the spray ejector device. Levels of the acid of latanoprost were measured in aqueous humor (AH) obtained by aqueocentesis over a 7-hour period each day for 5 days. This protocol was repeated for latanoprost 0.005% delivered by eyedropper (average dose 26 μl).
# All dogs received a washout and acclimation period of two weeks. In Week 1, all animals were assigned to a group, with two animals each in Groups 1, 2, 4, and 7. […] IOP and PD were measured while the topical anesthetic took effect. […]
# Week 3 followed the Week 1 protocol, with the substitution of eyedropper-delivered 0.005% latanoprost at an average dose of 26 μl at time 0. […] All AH samples were frozen to −80° C., stored overnight on dry ice, and then analyzed for the acid of latanoprost using a latanoprost-specific HPLC methodology. […]
smiles,measurement,value
CC(C)OC(=O)CCC/C=C\C[C@@H]1[C@@H](CC[C@@H](O)CCc2ccccc2)[C@H](O)C[C@@H]1O [latanoprost],absorption rate vs eyedropper-delivered drug in higher doses,three-fold
